Holding throughout (assay type): cell-based
Test [1] concerns S. saprophyticus. In words: minimum inhibitory concentration (MIC) method. The conditions noted are these: 37° C. 24 hours. The protocol: Another method of determining antimicrobial activity is to assess the Minimum inhibitory concentration (MIC) of the composition under test. […] Thereafter, increased concentrations will have a limiting effect on growth, until the concentration is reached where no growth relative to the control is observed. That point of no growth is the minimum inhibitory concentration. […] A positive control with the bacterium alone was prepared as well as an ethanol control. The tubes were incubated at 37° C. for 24 hours and growth of the bacterium was determined by observing the change in turbidity. […] Since the filing of the original application Ser. […] Pseudomonas fluorescens, Pseudomonas aeruginosa, Proteus vulgaris, Serratia marcescens, Proteus mirabilis and Enterobacter clocae.

For test [2], the system named is Staphlococcus saprophyticus. In words: paper disc diffusion susceptibility (Kirby-Bauer) method. Conditions: 24 hours; for zone of inhibition, Experiment 1 Control / zone of inhibition, Experiment 2 Control: antibiotic disc alone. From the text:
The first test method to be applied was the paper disc diffusion susceptibility method. In this method a filter paper disc impregnated with a chemical is placed on agar, and the chemical will diffuse from the disc into the agar. If an organism is placed on the agar, it will not grow in the area around the disc if it is susceptible to the chemical. This area of no growth around the disc is known as the zone of inhibition. This disc diffusion method for antibiotic susceptibility is known as the Kirby-Bauer method. In testing the effectiveness of various antibiotics, all factors, e.g., the agar utilized, the depth of the agar, the amount of organism used, and incubation conditions, are maintained constant for the various organisms and antibiotics being tested. […] The size of the zone of inhibition of the particular antimicrobial substance may also be influenced by the diffusion capability of that substance.
In performing the disc diffusion method tests, a bacterial suspension having an inoculum density of approximately 1×10^8 CFU/ml (colony forming units) was added to 10 ml trypticase soy agar at 46° C. It was mixed thoroughly by vortexing and then poured into a plastic Petri dish. After hardening of the agar, filter paper discs (φ7 mm.) made from Whatman filter paper No. 1 that had been impregnated by the manufacturer, Becton Dickinson, Inc., with the suitable antibiotic, were placed on the agar. In this series of tests the ability of each antibiotic per se to control the growth of the bacteria was measured.
Another series of agar containing Petri dishes was then prepared using the same bacteria and density thereof as had been prepared for the prior test series. However, here hop compounds were also present in the agar. The hop extract, either lupulone, humulone or xanthohumol, was dissolved in ethanol. While certain of the hop components are only slightly soluble in water, they are very soluble in ethanol. An ethanol control was prepared in the same way.
The size of the inhibition zones was measured to the nearest mm.
The concentration of β-acid and xanthohumol is set forth in μg/ml. The zone of inhibition was measured in centimeters. […]
For orientation: In agar diffusion tests the substance spreads into inoculated agar from a disc or well.

For test [3], the system named is S. salivarius. In words: minimum inhibitory concentration (MIC) method. The conditions noted are these: 37° C. 24 hours. As for the experimental part:
(§1) Another method of determining antimicrobial activity is to assess the Minimum inhibitory concentration (MIC) of the composition under test. […] Thereafter, increased concentrations will have a limiting effect on growth, until the concentration is reached where no growth relative to the control is observed. That point of no growth is the minimum inhibitory concentration. […] A positive control with the bacterium alone was prepared as well as an ethanol control. The tubes were incubated at 37° C. for 24 hours and growth of the bacterium was determined by observing the change in turbidity.

For test [4], the system named is B. megaterium. In words: minimum inhibitory concentration (MIC) method. Conditions: 37° C. 24 hours. The protocol:
as §1

Test [5] relates to B. subtilis. In words: minimum inhibitory concentration (MIC) method. Conditions: 37° C. 24 hours. As for the experimental part: as §1
Where [6] appears, read: antibiotic disc with 0.2 μg/ml β-resin in the agar.

Converted amounts (≈) assume the structure as drawn.

What is called MIC is the lowest concentration found to suppress growth.

Turning to polymyxin B, the “MIC, agent alone” value in test [1] (exp 1), in test [1] (exp 2), in test [3] (exp 1), in test [3] (exp 2), in test [4] (exp 1) and in test [4] (exp 2) was >100 µg/mL in each case. Also, the “zone of inhibition, Experiment 1 Control” value in test [2] is given as 0 mm; in test [2] (listed as polymyxin B), “no inhibition zone whatsoever”. The figures for the “zone of inhibition, Experiment 2 Control” value in test [2] and in test [2] (listed as polymyxin B) were 0 mm and “zero”, respectively. Also, in test [2] (setting [6]), the “zone of inhibition, Experiment 1 0.2 μg/ml β-resin” value is 9 mm. In addition, in test [2] (setting [6]), the “zone of inhibition, Experiment 2 0.2 μg/ml β-resin” value was 8 mm.

`COc1cc(O)c(CC=C(C)C)c(O)c1C(=O)/C=C/c1ccc(O)cc1` [X, xanthohumol]: the minimum inhibitory concentration (MIC) was 1 to 10 µg/mL (≈ 2.82 to 28.2 µM) in test [1] (Staphylococcus saprophyticus, exp 1, read-out: MIC, agent alone); < 10 µg/mL in test [3] (Streptococcus salivarius, exp 1, read-out: MIC, agent alone); > 1 µg/mL in test [5] (Bacillus subtilis, exp 1, read-out: MIC, agent alone); 10 µg/mL (≈ 28.2 µM) in test [4] (Priestia megaterium, exp 2, read-out: MIC, agent alone). The “MIC, agent alone” value in test [3] (exp 2) was <10 µg/mL; in test [5] (exp 1), >1 µg/mL; in test [5] (exp 2) it was >1 µg/mL; in test [4] (exp 1) it was 10 µg/mL (≈ 28.2 µM).

For the origin of these results see patent US8367086B1, “Process and product for inhibiting or preventing bacterial infections” (S.S. Steiner, Inc., priority 2004, dated 2013).
